Source: US20250275993A1, “GLYCOSYLATION INHIBITORS AS THERAPEUTICS FOR STROKE” (The Regents of the University of California, priority 2022, published 2025)

How the values were obtained:
[1] = test system: HUVEC; assay: HUVEC migration assay; assay type: cell-based, human; details: 40 μM ManN alone
Method: HUVECs (passage 6-8) were cultured and serum-starved as described in “Western Blots”. Ten thousand cells in […] of EBM-2 medium were then added to the upper chamber of […] pore size cell culture inserts (Falcon) coated with 0.1% gelatin. The lower compartment was filled with […] EBM-2 medium containing various agents. The plates were incubated at 37° C. to allow migration. After 4 hrs, cells were fixed with 4% PFA for 20 min and then stained with crystal violet (Sigma-Aldrich) for 20 min at RT. Migrated cells on the bottom side of the insert membrane were quantified by counting whole area of the insert at 40× magnification. The experiments were carried out in triplicate and repeated three times. BCEC migration was set up similarly, except that wells were coated with FN, cells were suspended in 1% serum media and migration time was 18-24 hrs.

[2] = test system: VEGF, VEGFR2 and GLUT1 & 4; assay: Gene expression analysis by real-time Q PCR in BCECs; assay type: cell-based, bovine; details: various concentrations of ManN; 4 hours (gene) or 24 hours (protein)
Method: RNA was prepared using the RNeasy Mini Kit (Qiagen). Fifty ng of total RNA per reaction was used for the real-time PCR (Taqman) analysis. Reactions were set up in MicroAmp Fast Optical 96-well reaction plate, seal with MicroAmp optical Adhesion film and run on ViiA7 Real time PCR system (Applied Biosystems) and the absolute quantification with standard curve was used with Sequence Detection System (SDS) software. The expression level of each gene was further quantified relative to the housekeeping gene RPL19 in the same sample. Taqman primers and probe mixes were obtained from Thermo Fisher Scientific. Bovine VEGF-A (Bt03213282), bovine RPL19 (Bt03229687) and bovine specific VEGFR2 (Bt03258877), GLUT1 (Bt03215313) and GLUT4 (Bt03215316).

[3] = biological target: T1, α-mannosidase from Jack Bean (Canavalia ensiformis, UniProt C0HJB3); assay: α-mannosidase activity assay; assay type: biochemical; details: 400 μM
T1 construct: purchased M7257
Method: (§1) a-mannosidase activity was measured using substrate p-nitrophenyl α-mannopyranoside (1 mM). Enzyme from Jack Bean (M7257) (final concentration of 0.077 U) was incubated at 37° C. in a final volume of 50 μl of 50 mM potassium phosphate buffer, pH 7.5. α-glucosidase was assayed with substrate p-nitrophenyl a-glucoside (7 mM). Enzyme from Saccharomyces cerevisiae-type 1 (Sigma, G5003) (final concentration of 0.1 U) was incubated at 37° C. in a final volume of 50 μl of PBS, pH 7.5. β-Glucosidase was assayed with substrate 4-nitrophenyl β-D-glucopyranoside (Roche). Enzyme from almond (Sigma, G0395) (final concentration of 0.002 U) was incubated at 37° C. in a final volume of 50 μl of PBS, pH 7.5 […]. The incubation was stopped by addition of an equal volume of acid-based stop solution (R&D systems, 895032). Enzymatic activity was measured at 405 nm. α-glucosidase from Saccharomyces cerevisiae type I (G5003) with p-nitrophenyl α-D-glucopyranoside (Sigma, N1377) as the substrate.

[4] = test system: α-glucosidase; assay: α-glucosidase activity assay; assay type: biochemical, Saccharomyces cerevisiae; details: up to 2 mM
Method: as §1

[5] = test system: complex N-glycans of BCECs; assay: Monosaccharide and sialic acid composition analysis of BCECs; assay type: cell-based, bovine; details: fucose 8 hours, mannose 12 hours, galactose 24 hours, Neu5Ac 8 and 24 hours
Method: Monosaccharide composition analysis was done using HPAEC-PAD (Thermo-Dionex ICS3000) and nmole amount of each monosaccharide present in 25 μg of protein was calculated. Samples were hydrolyzed using 2 N trifluoroacetic acid (TFA) at 100° C. for 4 hrs. Followed by removal of acid using dry nitrogen flush. To ensure complete removal of acid, samples were co-evaporated twice with 100 μl of 50% isopropyl alcohol (IPA). Finally, the samples were dissolved in Milli-Q water and injected on HPAEC-PAD. Monosaccharide profile was done using Dionex CarboPac PAI column (250 mm×4 mm; with 50 mm×4 mm guard column). An isocratic solvent mixture of 19 mM sodium hydroxide with 0.95 mM sodium acetate was used at a flow rate of 1 ml per minute for 25 mins. Data were acquired using manufacture supplied standard Quad waveform for carbohydrates. All neutral and amino sugars were identified and quantified by comparing with authentic monosaccharide standard mixture consisting of L-fucose, D-galactosamine, D-glucosamine, D-galactose, D-glucose and D-mannosc. Mild acid hydrolysis was used to release sialic acid. Briefly, samples were treated with 2 M acetic acid at 80° C. for 3 hrs followed by removal of excess acid using speed vacuum. […] Known amount of standard Neu5Ac was used to quantify amount of sialic acid in samples.

[6] = test system: A673; assay: A673 proliferation assay; assay type: cell-based; details: ManN
Method: (§2) Proliferation assays with fibroblasts were done in low-glucose DMEM containing 1% FBS, with or without 10 ng/ml bFGF, or 100 ng/ml human EGF and the assay was ended at day 3. ARPE-19 cells were gently lifted with 0.025% trypsin and plated in RtEGM media (Clonetics) containing 2% FBS, L-glutamine, human bFGF and GA-1000. Once cells were attached to plates, serum-free RtEGM media was used to maintain the cultures. For proliferation assays, 1500 human RPE cells were plated into 96-well plates in low-glucose DMEM containing 1% FBS. A673, U87MG, Calu6 and AML12 cells were grown until confluent and were then harvested and re-suspended in appropriate assay media. For proliferation assays, cells were plated at the density of 1000-2000 cells/well in low-glucose DMEM containing 5% FBS or otherwise stated. Bovine pituitary cells (pituitary folliculostellate cells) were isolated as previously described. For proliferation assays with human epidermal keratinocytes, human DMVECs and human dermal fibroblast cells, 1000 cells/well were plated in low-glucose DMEM containing 1% FBS with or without various growth factors. The assay was ended at day 3 for bovine pituitary cells and at day 4 for all the other cell types. […] Four days later, tumor cell growth was measured by the MTS assay (Promega, Madison, WI), a colorimetric assay that measures metabolic activity of viable cells. […]

[7] = test system: AML12 liver cells; assay: AML12 proliferation assay; assay type: cell-based, mouse
Method: as §2

[8] = test system: bovine pituitary cells; assay: Bovine pituitary cell proliferation assay; assay type: cell-based; details: alone or in combination with growth factors
Method: as §2

[9] = test system: NIH3T3 fibroblasts; assay: NIH3T3 proliferation assay; assay type: cell-based, mouse; details: alone or in combination with growth factors
Method: as §2

[10] = test system: ARPE-19 RPE cells; assay: Human RPE proliferation assay; assay type: cell-based
Method: as §2

[11] = alone or in combination with growth factors

T1 sequence (C0HJB3 whole entry): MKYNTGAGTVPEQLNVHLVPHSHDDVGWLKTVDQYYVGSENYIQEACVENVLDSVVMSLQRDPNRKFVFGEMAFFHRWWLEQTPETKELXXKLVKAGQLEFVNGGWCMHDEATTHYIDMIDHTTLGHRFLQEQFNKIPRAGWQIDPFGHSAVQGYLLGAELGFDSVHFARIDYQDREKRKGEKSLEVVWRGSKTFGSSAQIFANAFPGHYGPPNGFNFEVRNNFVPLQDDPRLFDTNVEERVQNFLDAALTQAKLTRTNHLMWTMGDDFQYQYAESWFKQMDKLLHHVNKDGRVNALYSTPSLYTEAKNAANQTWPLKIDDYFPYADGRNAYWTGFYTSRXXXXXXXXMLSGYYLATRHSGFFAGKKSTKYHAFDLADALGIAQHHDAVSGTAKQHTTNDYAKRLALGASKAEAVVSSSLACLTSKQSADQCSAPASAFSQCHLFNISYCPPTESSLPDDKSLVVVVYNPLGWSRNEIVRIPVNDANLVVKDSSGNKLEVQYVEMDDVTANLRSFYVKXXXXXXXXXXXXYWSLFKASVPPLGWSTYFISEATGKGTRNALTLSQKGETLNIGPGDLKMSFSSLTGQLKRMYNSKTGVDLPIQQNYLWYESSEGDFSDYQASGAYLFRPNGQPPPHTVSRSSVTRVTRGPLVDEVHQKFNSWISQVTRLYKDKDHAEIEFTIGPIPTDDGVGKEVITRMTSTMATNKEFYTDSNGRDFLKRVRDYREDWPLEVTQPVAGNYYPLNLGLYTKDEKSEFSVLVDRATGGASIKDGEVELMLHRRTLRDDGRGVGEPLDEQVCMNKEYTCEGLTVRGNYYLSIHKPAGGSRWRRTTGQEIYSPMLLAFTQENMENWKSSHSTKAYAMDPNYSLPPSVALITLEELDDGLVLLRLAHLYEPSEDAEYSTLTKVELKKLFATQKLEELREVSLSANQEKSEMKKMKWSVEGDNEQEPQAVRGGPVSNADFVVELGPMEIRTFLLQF

## N[C@H](C=O)[C@@H](O)[C@H](O)[C@H](O)CO [ManN, 2-Amino-2-deoxy-D-mannose]
[1]
  HUVEC migration: stimulation of migration and wound closure
[2]
  transcription of VEGF, VEGFR2, GLUT1 & 4 and total VEGFR2 protein expression: neither transcription of VEGF, VEGFR2 and GLUT] & 4 nor total VEGFR2 protein expression was significantly changed
[3]
  inhibitory activity on α-mannosidase: inhibitory activity
[4]
  effect on α-glucosidase: No effect
[5]
  fucose, mannose, galactose and Neu5Ac content: significant decrease
[6]
  growth of A673: did not promote growth
[7]; 5 mM level of ManN
  sensitivity of AML12 to ManN toxicity: most sensitive one
[7]; [11]
  proliferation of AML12: no increases in proliferation
[8]
  proliferation of bovine pituitary cells: no increases in proliferation
[9]
  proliferation of NIH3T3 cells: no increases in proliferation
[10]; 5 mM level of ManN
  sensitivity of human RPE cells to ManN toxicity: least sensitive ones
[10]; [11]
  proliferation of human RPEs: no increases in proliferation
